For one assay, the target named is RON (human) (Homo sapiens, UniProt Q04912). Briefly: RON kinase AlphaScreen assay (Km of ATP). It is filed as biochemical. Particulars: ATP at Km; at least duplicate experiments. The gist of the method:
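AlphaScreen with PT66 donor/acceptor beads, read after 1 h, detected phosphorylation of biotinylated poly(Glu,Tyr) by human RON. Enzyme-started reactions ran 30 min at room temperature with ATP at Km. Buffer was HEPES pH 7.4 with MgCl2, glycerol, vanadate and 1% DMSO.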

The next assay concerns the target MET (human) (Homo sapiens, UniProt P08581). In words: MET kinase AlphaScreen assay (Km of ATP). It is filed as biochemical. To be noted: ATP at Km; at least duplicate experiments. The gist of the method: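 AlphaScreen detection with PT66 beads (1 h) follows a 60 min room-temperature MET reaction. Substrate is 200 ng/μL biotinylated poly(Glu,Tyr), with ATP set at an enzyme-optimized concentration. Buffer is HEPES pH 7.4 with MgCl2, MnCl2 and 0.334 mM vanadate, compounds at 1% DMSO.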
(In general: In Alpha technology, singlet oxygen from a donor bead excites a nearby acceptor bead.)

Counter-ions that a name gives are not always drawn.

Sequence of MET (human) (P08581 25-1390): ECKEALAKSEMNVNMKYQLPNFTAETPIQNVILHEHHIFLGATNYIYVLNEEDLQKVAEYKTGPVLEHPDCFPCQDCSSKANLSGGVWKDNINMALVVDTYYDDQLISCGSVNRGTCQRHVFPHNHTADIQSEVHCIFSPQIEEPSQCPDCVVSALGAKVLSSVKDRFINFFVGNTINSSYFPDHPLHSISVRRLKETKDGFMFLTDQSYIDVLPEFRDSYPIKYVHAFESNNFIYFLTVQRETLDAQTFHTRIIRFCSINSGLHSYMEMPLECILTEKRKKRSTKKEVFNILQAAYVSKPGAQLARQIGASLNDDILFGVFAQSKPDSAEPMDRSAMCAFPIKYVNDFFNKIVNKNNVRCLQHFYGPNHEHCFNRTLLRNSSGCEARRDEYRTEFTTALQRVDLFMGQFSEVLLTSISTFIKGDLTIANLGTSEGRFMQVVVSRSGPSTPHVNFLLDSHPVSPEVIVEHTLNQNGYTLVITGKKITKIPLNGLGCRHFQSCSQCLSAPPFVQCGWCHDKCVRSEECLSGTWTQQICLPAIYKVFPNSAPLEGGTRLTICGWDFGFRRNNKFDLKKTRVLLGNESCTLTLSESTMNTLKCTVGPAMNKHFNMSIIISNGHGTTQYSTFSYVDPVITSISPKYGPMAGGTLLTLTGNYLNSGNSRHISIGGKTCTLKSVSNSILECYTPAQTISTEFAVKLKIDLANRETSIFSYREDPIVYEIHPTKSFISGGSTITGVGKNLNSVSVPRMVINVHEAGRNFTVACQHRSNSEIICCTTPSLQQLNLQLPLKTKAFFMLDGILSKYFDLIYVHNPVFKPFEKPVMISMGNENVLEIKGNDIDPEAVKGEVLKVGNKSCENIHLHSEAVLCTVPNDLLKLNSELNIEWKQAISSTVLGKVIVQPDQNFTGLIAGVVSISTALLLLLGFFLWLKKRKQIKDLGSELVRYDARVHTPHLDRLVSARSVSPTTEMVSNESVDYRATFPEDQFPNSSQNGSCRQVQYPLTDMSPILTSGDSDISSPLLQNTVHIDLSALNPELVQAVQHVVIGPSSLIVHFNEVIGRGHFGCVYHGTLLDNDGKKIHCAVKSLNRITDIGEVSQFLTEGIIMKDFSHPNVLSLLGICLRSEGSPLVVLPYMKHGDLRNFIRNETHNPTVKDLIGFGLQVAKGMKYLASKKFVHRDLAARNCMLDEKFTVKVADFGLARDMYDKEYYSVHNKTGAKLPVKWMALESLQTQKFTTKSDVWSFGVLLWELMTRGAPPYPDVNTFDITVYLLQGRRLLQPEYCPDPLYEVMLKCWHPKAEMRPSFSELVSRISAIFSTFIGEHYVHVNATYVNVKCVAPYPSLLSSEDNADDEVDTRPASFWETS
Sequence of RON (human) (Q04912 25-1400): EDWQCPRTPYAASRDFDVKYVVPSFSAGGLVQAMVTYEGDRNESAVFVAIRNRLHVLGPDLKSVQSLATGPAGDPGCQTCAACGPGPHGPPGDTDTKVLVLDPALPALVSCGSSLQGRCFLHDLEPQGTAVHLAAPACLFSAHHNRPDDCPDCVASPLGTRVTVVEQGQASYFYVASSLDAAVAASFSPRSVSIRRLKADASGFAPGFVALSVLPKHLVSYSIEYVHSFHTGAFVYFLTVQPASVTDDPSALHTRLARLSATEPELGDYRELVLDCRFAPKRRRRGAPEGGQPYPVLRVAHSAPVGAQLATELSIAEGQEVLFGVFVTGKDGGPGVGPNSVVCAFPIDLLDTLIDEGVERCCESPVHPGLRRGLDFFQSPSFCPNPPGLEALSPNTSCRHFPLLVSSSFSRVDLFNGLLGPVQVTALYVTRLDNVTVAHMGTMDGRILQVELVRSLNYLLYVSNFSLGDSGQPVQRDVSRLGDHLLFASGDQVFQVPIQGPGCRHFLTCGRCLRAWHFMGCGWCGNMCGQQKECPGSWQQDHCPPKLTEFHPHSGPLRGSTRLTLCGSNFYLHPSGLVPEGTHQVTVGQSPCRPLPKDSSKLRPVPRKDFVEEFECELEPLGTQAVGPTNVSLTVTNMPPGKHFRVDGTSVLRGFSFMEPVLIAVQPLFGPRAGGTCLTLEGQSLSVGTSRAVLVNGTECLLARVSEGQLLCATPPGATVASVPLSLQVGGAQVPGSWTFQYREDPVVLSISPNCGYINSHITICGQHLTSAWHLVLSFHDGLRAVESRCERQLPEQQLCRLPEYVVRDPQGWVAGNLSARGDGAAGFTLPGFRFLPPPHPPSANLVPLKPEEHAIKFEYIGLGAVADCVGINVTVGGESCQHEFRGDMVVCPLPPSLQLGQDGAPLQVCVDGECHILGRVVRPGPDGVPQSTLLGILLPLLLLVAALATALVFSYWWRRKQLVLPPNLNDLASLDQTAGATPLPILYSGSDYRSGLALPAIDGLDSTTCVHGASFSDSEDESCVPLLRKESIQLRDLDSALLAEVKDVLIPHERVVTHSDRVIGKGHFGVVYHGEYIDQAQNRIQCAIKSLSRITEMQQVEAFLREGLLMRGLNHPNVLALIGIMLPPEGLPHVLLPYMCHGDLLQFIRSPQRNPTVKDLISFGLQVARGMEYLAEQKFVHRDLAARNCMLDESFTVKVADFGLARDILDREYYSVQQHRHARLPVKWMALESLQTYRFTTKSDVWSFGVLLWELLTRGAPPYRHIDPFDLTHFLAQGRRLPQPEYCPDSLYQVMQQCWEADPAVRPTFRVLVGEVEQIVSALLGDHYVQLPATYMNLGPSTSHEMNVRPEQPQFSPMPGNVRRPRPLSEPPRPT

What is called IC50 is the midpoint of a concentration-inhibition curve. Consider `NCC#Cc1cnc(N)c(-c2nc3ccccc3s2)c1` [Example 126, 5-(3-Aminoprop-1-ynyl)-3-benzothiazol-2-ylpyridin-2-ylamine], for which the IC50 was above 20000 nM against RON (human) and 1000 to 20000 nM against MET (human).

As for `CNC(=O)CCn1cc(-c2cnc(N)c(-c3nc4ccccc4s3)c2)cn1` [Example 296, 3-[4-(6-Amino-5-benzothiazol-2-ylpyridin-3-yl)-pyrazol-1-yl]-N-methylpropionamide], the IC50 against RON (human) and against MET (human) was 1000 to 20000 nM throughout.

On to `CC(C)n1cc(-c2cnc(N)c(-c3cc4c(Cl)ccc(F)c4cn3)c2)cn1` [Example 66, 3-(5-Chloro-8-fluoroisoquinolin-3-yl)-5-(1-isopropyl-1H-pyrazol-4-yl)-pyridin-2-ylamine bis-hydrochloride], for which the concentration for half-maximal inhibition (IC50) against RON (human) and against MET (human) was 1000 to 20000 nM throughout.

Regarding `Nc1ncc(-c2cnc(N3CCNCC3)s2)cc1-c1nc2ccccc2s1` [Example 122, 3-Benzothiazol-2-yl-5-(2-piperazin-1-ylthiazol-5-yl)-pyridin-2-ylamine dihydrochloride], the IC50 on RON (human) and against MET (human) was 100 to 1000 nM each time.

For `CN(C)C(=O)[C@@H]1C[C@H](n2cc(-c3cnc(N)c(-c4nc5ccccc5s4)c3)cn2)CN1` [Example 155, (2S,4S)-4-[4-(6-Amino-5-benzothiazol-2-ylpyridin-3-yl)-pyrazol-1-yl]-pyrrolidine-2-carboxylic acid dimethylamide], the IC50 is 100 to 1000 nM against RON (human) and at most 100 nM against MET (human).

Regarding `Nc1ncc(-c2cccc(OCC(=O)O)c2)cc1-c1nc2ccccc2s1` [Example 235, [3-(6-Amino-5-benzothiazol-2-yl-pyridin-3-yl)-phenoxy]acetic acid], the IC50 against RON (human) and against MET (human) was 1000 to 20000 nM each time.

As to `Nc1ncc(-c2ccc(OCC(=O)NCCCN3CCCC3=O)cc2)cc1-c1nc2ccccc2s1` [Example 242, 2-[4-(6-Amino-5-benzothiazol-2-ylpyridin-3-yl)-phenoxy]-N-[3-(2-oxopyrrolidin-1-yl)-propyl]acetamide], the 50% inhibitory concentration (IC50) on RON (human) and against MET (human) was 1000 to 20000 nM throughout.

With `CN1CCC(NC(=O)c2cccc(-c3cnc(N)c(-c4nc5ccccc5s4)c3)c2)CC1` [Example 218, 3-(6-Amino-5-benzothiazol-2-ylpyridin-3-yl)-N-(1-methylpiperidin-4-yl)benzamide], the results for the IC50 at RON (human) and against MET (human) were 1000 to 20000 nM and 100 to 1000 nM, respectively.

Turning to `Nc1ncc(-c2cnn(C3CCNCC3)c2)cc1-c1nc2cccc(-c3ccc[nH]3)c2s1` [Example 249, 5-(1-Piperidin-4-yl-1H-pyrazol-4-yl)-3-[7-(1H-pyrrol-2-yl)benzothiazol-2-yl]pyridin-2-ylamine dihydrochloride], the IC50 on RON (human) was 100 to 1000 nM; on MET (human) it was at most 100 nM.

As to `Cc1cccc2cc(-c3cc(-c4cnn(C5CCNCC5)c4)cnc3N)ncc12` [Example 5, 3-(8-Methylisoquinolin-3-yl)-5-(1-piperidin-4-yl-1H-pyrazol-4-yl)-pyridin-2-ylamine trihydrochloride], the IC50 at RON (human) and at MET (human) was 100 to 1000 nM in each case.

On to `Nc1ncc(-c2cnn([C@H]3CCNC3)c2)cc1-c1cc2ccccc2o1` [Example 100, 3-Benzofuran-2-yl-5-((S)-1-pyrrolidin-3-yl-1H-pyrazol-4-yl)-pyridin-2-ylamine dihydrochloride], for which the IC50 on RON (human) and on MET (human) was 100 to 1000 nM each time.

In the case of `COCCN(CCOC)C(=O)CN1CCC(n2cc(-c3cnc(N)c(-c4nc5ccccc5s4)c3)cn2)CC1` [Example 173, 2-{4-[4-(6-Amino-5-benzothiazol-2-ylpyridin-3-yl)-pyrazol-1-yl]-piperidin-1-yl}-N,N-bis-(2-methoxyethyl)-acetamide], the IC50 at RON (human) and against MET (human) was 100 to 1000 nM in each case.

As for `Cc1ccc(F)c2cnc(-c3cc(-c4cnn(C5CCNCC5)c4)cnc3N)cc12` [Example 6, 3-(8-Fluoro-5-methylisoquinolin-3-yl)-5-(1-piperidin-4-yl-1H-pyrazol-4-yl)-pyridin-2-ylamine trihydrochloride], the IC50 on RON (human) and at MET (human) was 100 to 1000 nM throughout.

Regarding `Nc1ncc(-c2cccnc2)cc1-c1cc2c(Cl)ccc(F)c2cn1` [Example 78, 5-(5-Chloro-8-fluoroisoquinolin-3-yl)-3,3′-bipyridin-6-amine], the 50% inhibitory concentration (IC50) on RON (human) and on MET (human) was 1000 to 20000 nM each time.

Take `Nc1ncc(-c2cnn(C3CCNCC3)c2)cc1-c1nc2cccc(-c3cn[nH]c3)c2s1` [Example 247, 5-(1-Piperidin-4-yl-1H-pyrazol-4-yl)-3-[7-(1H-pyrazol-4-yl)benzothiazol-2-yl]pyridin-2-ylamine dihydrochloride]: the IC50 is 100 to 1000 nM at RON (human) and at most 100 nM against MET (human).

For `CN(C)CCCOc1ccc(-c2cnc(N)c(-c3nc4ccccc4s3)c2)cn1` [Example 188, 5-Benzothiazol-2-yl-6′-(3-dimethylaminopropoxy)-[3,3′]bipyridinyl-6-ylamine], the IC50 on RON (human) and against MET (human) was 1000 to 20000 nM each time.

As to `CC(C(=O)N1CCCC1)n1cc(-c2cnc(N)c(-c3nc4ccccc4s3)c2)cn1` (centres unmarked) [Example 151, 2-[4-(6-Amino-5-benzothiazol-2-ylpyridin-3-yl)-pyrazol-1-yl]-1-pyrrolidin-1-ylpropan-1-one], the half-inhibitory concentration (IC50) against RON (human) and at MET (human) was 100 to 1000 nM each time.

As for `Nc1ncc(-c2cnn(C3CCNCC3)c2)cc1-c1nc2c(C(F)(F)F)ccc(F)c2s1` [Example 269, 3-(7-Fluoro-4-trifluoromethylbenzothiazol-2-yl)-5-(1-piperidin-4-yl-1H-pyrazol-4-yl)-pyridin-2-ylamine], the IC50 on RON (human) and against MET (human) was 100 to 1000 nM each time.

Take `Cc1ccc(C(F)(F)F)c2nc(-c3cc(-c4cnn(C5CCNCC5)c4)cnc3N)sc12` [Example 280, 3-(7-Methyl-4-trifluoromethylbenzothiazol-2-yl)-5-(1-piperidin-4-yl-1H-pyrazol-4-yl)-pyridin-2-ylamine]: the IC50 at RON (human) and at MET (human) was 100 to 1000 nM throughout.

As for `CN(C)CCNC(=O)c1ccc(-c2cnc(N)c(-c3nc4ccccc4s3)c2)cc1` [Example 185, 4-(6-Amino-5-benzothiazol-2-ylpyridin-3-yl)-N-(2-dimethylaminoethyl)benzamide], the IC50 against RON (human) fell in the range of 1000 to 20000 nM; on MET (human) it was 100 to 1000 nM.

Regarding `Nc1ncc(-c2cn[nH]c2)cc1-c1cc2c(Cl)ccc(F)c2cn1` [Example 87, 3-(5-Chloro-8-fluoroisoquinolin-3-yl)-5-(1H-pyrazol-4-yl)pyridin-2-amine], the IC50 at RON (human) and against MET (human) was 1000 to 20000 nM each time.

Take `Nc1ncc(-c2cnn(C3CCNCC3)c2)cc1-c1nc2cc(Cl)ccc2s1` [Example 258, 3-(5-Chlorobenzothiazol-2-yl)-5-(1-piperidin-4-yl-1H-pyrazol-4-yl)-pyridin-2-ylamine]: the IC50 against RON (human) was 100 to 1000 nM; at MET (human) it was at most 100 nM.

Consider `Nc1ncc(-c2cnn([C@@H]3CN[C@@H](C(=O)N4CCCC4)C3)c2)cc1-c1nc2ccccc2s1` [Example 176, {(2R,4S)-4-[4-(6-Amino-5-benzothiazol-2-ylpyridin-3-yl)-pyrazol-1-yl]-pyrrolidin-2-yl}-pyrrolidin-1-ylmethanone], for which the IC50 against RON (human) and on MET (human) was 100 to 1000 nM in each case.

With `Nc1ncc(C#CCNC(=O)CN2CCCC2)cc1-c1nc2ccccc2s1` [Example 131, N-[3-(6-Amino-5-benzothiazol-2-ylpyridin-3-yl)-prop-2-ynyl]-2-pyrrolidin-1-ylacetamide], the IC50 against RON (human) and against MET (human) was 1000 to 20000 nM each time.

In the case of `CC(C(=O)N1CCC(O)CC1)n1cc(-c2cnc(N)c(-c3nc4ccccc4s3)c2)cn1` (centres unmarked) [Example 150, 2-[4-(6-Amino-5-benzothiazol-2-ylpyridin-3-yl)-pyrazol-1-yl]-1-(4-hydroxypiperidin-1-yl)-propan-1-one], the IC50 on RON (human) and at MET (human) was 100 to 1000 nM in each case.

For the molecule `Nc1ncc(-c2ccc(C(=O)O)cc2)cc1-c1nc2ccccc2s1` [Example 201, 4-(6-Amino-5-benzothiazol-2-ylpyridin-3-yl)-benzoic acid], the 50% inhibitory concentration (IC50) at RON (human) and at MET (human) was 1000 to 20000 nM throughout.

Turning to `Nc1ncc(-c2cnn(C3CCNCC3)c2)cc1-c1oc2ccccc2c1-c1cccc(Cl)c1F` [Example 97, 3-[3-(3-Chloro-2-fluorophenyl)benzofuran-2-yl]-5-(1-piperidin-4-yl-1H-pyrazol-4-yl)pyridine-2-ylamine], the IC50 lay within 1000 to 20000 nM on RON (human) and 100 to 1000 nM against MET (human).

For the molecule `Nc1ncc(-c2cnn(C3CCNCC3)c2)cc1-c1cc2cc(O)ccc2cn1` [Example 28, 3-[2-Amino-5-(1-piperidin-4-yl-1H-pyrazol-4-yl)-pyridin-3-yl]-isoquinolin-6-ol trihydrochloride salt], the IC50 was in the range of 1000 to 20000 nM against RON (human) and 100 to 1000 nM on MET (human).

With `N#Cc1ccc2sc(-c3cc(-c4cnn(C5CCNCC5)c4)cnc3N)nc2c1` [Example 267, 2-[2-Amino-5-(1-piperidin-4-yl-1H-pyrazol-4-yl)-pyridin-3-yl]-benzothiazole-5-carbonitrile], the IC50 at RON (human) and at MET (human) was at most 100 nM in each case.

On to `Nc1ncc(-c2ccc(OCC(=O)O)cc2)cc1-c1nc2ccccc2s1` [Example 237, 4-[6-Amino-5-(1,3-benzothiazol-2-yl)pyridin-3-yl]phenoxyacetic acid], for which the IC50 against RON (human) fell in the range of 1000 to 20000 nM; against MET (human), 100 to 1000 nM.

Turning to `Nc1ncc(-c2cnn(C3CNC3)c2)cc1-c1nc2ccccc2s1` [Example 181, 5-(1-Azetidin-3-yl-1H-pyrazol-4-yl)-3-benzothiazol-2-ylpyridin-2-ylamine trifluoroacetate], the IC50 against RON (human) was 100 to 1000 nM; at MET (human), at most 100 nM.
